# Data taken from patent US7371745B2, “Bis-transition-metal-chelate probes” (Rutgers, The State University of New Jersey, priority 2002, dated 2008).
# Several values for one entry are separate records, joined by “and”; a condition that tells them apart may be missing. Equal values may be shown once.
# Columns and labels:
# [1] = Spectroscopic properties of the fluorochromes; format: physicochemical
# (CAP-His6)-DNA^F complex [2] = target: T1, (CAP-His6)-DNA^F complex (Escherichia coli, UniProt P0ACJ8); details: for donor-acceptor distance, R: fluorescein on DNA^F to probe on His6 of CAP-His6
# (CAP-His6)-DNA^F complex [3] = target: T1, (CAP-His6)-DNA^F complex; details: control titration with the CAP-DNA^F complex
# Description: FRET assays using the probes according to the invention then were performed to verify interactions, to detect a target material, and to measure an intermolecular distance.
# Reaction mixtures (200 μl, in 50 μl quartz micro-cuvettes (Starna)) contained 5 nM DNA^F and 50 nM CAP-His6 (or CAP) in buffer C. […] Fluorescence emission was determined at the start of the titration and 5 min after each successive addition in the titration. All solutions were maintained at 25° C.
# Fluorescence emission intensities, F, were measured using a commercial steady-state fluorescence instrument (QM-1, PTI) equipped with T-format Glan-Thompson polarizers (PTI) set at 54.7° (“magic angle”).
# Data were plotted as E vs. titrant concentration, and binding curves and equilibrium dissociation constants were calculated using non-linear regression (as described in Gunasekera, A. et al., J. Biol. Chem., 267:14,713-14,720 (1992)).
# CAP-His6 = CAP-His6 (Escherichia coli, UniProt P0ACJ8); details: control titration with CAP (no His6 tag)
# Sequence of CAP-His6 (P0ACJ8 2-210, added parts left off): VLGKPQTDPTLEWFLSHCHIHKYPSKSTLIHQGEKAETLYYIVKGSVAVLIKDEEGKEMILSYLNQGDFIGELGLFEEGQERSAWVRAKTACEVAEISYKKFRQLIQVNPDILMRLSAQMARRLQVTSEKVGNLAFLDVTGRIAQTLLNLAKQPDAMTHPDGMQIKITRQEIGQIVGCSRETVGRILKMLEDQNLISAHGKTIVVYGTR
# Description: Formation of a complex of the probe with a His6-tagged protein was detected as an increase in fluorescence anisotropy, A, arising from the increase in molecular size and corresponding decrease in rotational dynamics.
# Reaction mixtures were titrated with 0-3 μM CAP-His6 (or CAP) by successive addition of 0.5-4 μl aliquots of 2-4 μM CAP-His6 (or CAP) in the same buffer. Fluorescence anisotropy was determined at the start of the titration and 5 min after each successive addition in the titration. All solutions were maintained at 25° C.
# Fluorescence measurements were performed using a commercial steady-state fluorescence instrument (QM-1, PTI) equipped with T-format Glan-Thompson polarizers (PTI). […] Slit widths were 10 nm. Fluorescence emission intensities were corrected for background by subtraction of fluorescence emissions intensities for control reactions containing identical concentrations of CAP-His6 or CAP but not containing probe.
# Fluorescence anisotropy, A, was calculated using: A=(IVV−GIVH)/(IVV+2GVH) where IVV and IVH are the fluorescent intensities with the excitation polarizer at a vertical position and the emission polarizers at vertical and horizontal positions, respectively, and G is the grating correction factor. […] Equilibrium dissociation constants were calculated using linear regression.
# T1 sequence (P0ACJ8 2-210, added parts left off, one chain of several): as the sequence (P0ACJ8 2-210, added parts left off) above
Substance,quantum yield (Q) [1],"λmax, em [1]","λmax, exc [1]","donor-acceptor distance, R ((CAP-His6)-DNA^F complex [2])",specificity ((CAP-His6)-DNA^F complex [3]),specificity (CAP-His6),"efficiency of FRET at saturation, Esat ((CAP-His6)-DNA^F complex [2]; fluorescein donor on DNA^F, probe as acceptor)"
(Ni^2+-NTA)2-Cy3,0.04,565 nm,552 nm,58 Å,> 95%,> 95%,
(Ni^2+-NTA)2-Cy5,0.05,668 nm,650 nm,53 Å,> 95%,> 95%,0.45 and 0.25
